# Experimental data taken from PMC10175918 (Communications Biology, 2023).
# Where two headings read alike, the source gives them in different places.
# Tests used:
# Test in all cases: TGFα-shedding assay-based GPCR screening with chimeric Gα subunit proteins
# Format in all cases: cell-based
# 348 GPCRs [1] = target: T1, 348 GPCRs (Homo sapiens, UniProt P49190); conditions: 10µM, Favipiravir 100μM
# T1 construct: expressed in transfected cells; host or cells: HEK293A
# 348 GPCRs [2] = target: T2, 348 GPCRs (Homo sapiens, UniProt Q9P1P5); conditions: 10µM, Favipiravir 100μM
# T2 construct: expressed in transfected cells; host or cells: HEK293A
# T2 sequence (Q9P1P5 1-351): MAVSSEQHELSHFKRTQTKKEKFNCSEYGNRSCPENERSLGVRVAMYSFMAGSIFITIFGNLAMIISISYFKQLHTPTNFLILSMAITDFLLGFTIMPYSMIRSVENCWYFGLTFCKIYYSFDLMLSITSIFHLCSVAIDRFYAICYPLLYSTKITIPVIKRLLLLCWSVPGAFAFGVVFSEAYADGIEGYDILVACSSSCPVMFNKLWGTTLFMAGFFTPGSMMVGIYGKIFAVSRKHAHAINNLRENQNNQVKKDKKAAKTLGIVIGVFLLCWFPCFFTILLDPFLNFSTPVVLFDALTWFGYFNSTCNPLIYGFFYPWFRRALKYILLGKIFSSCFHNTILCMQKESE
# 348 GPCRs [3] = target: 348 GPCRs (Homo sapiens, UniProt P21728); conditions: 10µM, Favipiravir 100μM
# Sequence of 348 GPCRs (Homo sapiens, UniProt P21728) (P21728 whole entry): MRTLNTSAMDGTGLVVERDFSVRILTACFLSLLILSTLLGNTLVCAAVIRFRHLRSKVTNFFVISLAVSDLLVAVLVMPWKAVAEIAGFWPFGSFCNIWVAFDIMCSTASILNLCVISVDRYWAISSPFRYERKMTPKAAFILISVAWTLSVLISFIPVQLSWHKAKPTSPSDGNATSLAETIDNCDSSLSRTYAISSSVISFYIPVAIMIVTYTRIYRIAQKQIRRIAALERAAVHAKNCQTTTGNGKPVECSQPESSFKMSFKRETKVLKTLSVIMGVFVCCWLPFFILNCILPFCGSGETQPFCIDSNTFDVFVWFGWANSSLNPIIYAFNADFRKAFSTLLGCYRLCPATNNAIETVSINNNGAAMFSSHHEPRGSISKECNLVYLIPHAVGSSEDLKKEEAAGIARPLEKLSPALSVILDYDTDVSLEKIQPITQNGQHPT
# 348 GPCRs [4] = target: T3, 348 GPCRs (Homo sapiens, UniProt P48039); conditions: 10µM, Favipiravir 100μM
# T3 construct: expressed in transfected cells; host or cells: HEK293A
# T3 sequence (P48039 whole entry): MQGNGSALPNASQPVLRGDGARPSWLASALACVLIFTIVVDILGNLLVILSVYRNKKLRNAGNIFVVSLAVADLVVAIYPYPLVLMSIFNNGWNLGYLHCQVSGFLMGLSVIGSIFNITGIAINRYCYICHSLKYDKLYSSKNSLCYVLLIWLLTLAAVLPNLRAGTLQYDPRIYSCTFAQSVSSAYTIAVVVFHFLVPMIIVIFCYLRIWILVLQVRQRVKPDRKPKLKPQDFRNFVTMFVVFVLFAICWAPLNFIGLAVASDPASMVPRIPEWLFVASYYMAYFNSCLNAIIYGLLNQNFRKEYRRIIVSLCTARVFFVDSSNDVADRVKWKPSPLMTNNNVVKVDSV
# 348 GPCRs [5] = target: T4, 348 GPCRs (Homo sapiens, UniProt P35414); conditions: 10µM, Favipiravir 100μM
# T4 sequence (P35414 1-380): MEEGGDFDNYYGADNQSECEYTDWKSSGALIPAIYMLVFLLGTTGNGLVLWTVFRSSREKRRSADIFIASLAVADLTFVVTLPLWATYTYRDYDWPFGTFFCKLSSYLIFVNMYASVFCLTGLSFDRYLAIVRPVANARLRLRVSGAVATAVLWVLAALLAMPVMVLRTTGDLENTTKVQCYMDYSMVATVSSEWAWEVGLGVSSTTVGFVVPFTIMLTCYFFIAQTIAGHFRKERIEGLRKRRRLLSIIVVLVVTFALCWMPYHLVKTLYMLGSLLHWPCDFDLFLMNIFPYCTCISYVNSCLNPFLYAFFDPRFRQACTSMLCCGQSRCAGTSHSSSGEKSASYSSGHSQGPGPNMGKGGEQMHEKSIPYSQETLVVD
# 348 GPCRs [6] = target: T5, 348 GPCRs (Homo sapiens, UniProt Q96LB0); conditions: 10µM, Favipiravir 100μM
# T5 construct: expressed in transfected cells; host or cells: HEK293A
# T5 sequence (Q96LB0 whole entry): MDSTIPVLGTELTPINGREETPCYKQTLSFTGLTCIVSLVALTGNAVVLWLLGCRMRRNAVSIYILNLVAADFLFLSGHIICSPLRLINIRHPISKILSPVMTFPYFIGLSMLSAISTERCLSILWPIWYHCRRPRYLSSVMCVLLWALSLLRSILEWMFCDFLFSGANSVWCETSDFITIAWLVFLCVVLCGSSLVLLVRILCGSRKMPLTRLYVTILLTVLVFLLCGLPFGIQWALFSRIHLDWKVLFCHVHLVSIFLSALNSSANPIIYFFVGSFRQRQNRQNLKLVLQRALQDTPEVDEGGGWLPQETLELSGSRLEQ
# 348 GPCRs [7] = target: 348 GPCRs (Homo sapiens, UniProt P30989); conditions: 10µM, Favipiravir 100μM
# Sequence of 348 GPCRs (Homo sapiens, UniProt P30989) (P30989 whole entry): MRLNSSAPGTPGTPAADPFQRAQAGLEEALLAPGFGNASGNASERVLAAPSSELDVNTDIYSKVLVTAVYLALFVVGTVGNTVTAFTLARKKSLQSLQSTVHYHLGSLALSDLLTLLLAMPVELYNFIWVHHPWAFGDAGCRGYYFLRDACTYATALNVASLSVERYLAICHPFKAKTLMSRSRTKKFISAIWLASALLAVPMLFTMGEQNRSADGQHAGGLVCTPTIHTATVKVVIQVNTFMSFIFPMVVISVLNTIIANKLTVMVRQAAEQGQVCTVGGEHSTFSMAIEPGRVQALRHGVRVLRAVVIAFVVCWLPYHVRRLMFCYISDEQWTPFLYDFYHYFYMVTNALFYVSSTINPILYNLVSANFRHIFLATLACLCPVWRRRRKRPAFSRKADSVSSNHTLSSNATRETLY
# 348 GPCRs [8] = target: 348 GPCRs (Homo sapiens, UniProt P41145); conditions: read-out: % GPCR activation compared to TPA, OPRK1 (opioid receptor, kappa 1 (KOR)); 10µM, Favipiravir 100μM
# Sequence of 348 GPCRs (Homo sapiens, UniProt P41145) (P41145 whole entry): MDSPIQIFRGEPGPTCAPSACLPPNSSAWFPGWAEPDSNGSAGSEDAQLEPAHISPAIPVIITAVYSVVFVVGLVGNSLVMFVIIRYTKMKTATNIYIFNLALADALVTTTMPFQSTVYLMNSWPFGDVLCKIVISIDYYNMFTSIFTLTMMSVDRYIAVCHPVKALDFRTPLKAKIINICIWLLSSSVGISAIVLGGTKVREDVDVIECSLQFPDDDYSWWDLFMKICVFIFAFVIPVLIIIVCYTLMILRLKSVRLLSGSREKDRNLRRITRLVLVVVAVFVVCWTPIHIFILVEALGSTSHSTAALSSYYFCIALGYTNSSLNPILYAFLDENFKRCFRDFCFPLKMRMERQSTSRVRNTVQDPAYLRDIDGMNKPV
# 348 GPCRs [9] = target: T6, 348 GPCRs (Homo sapiens, UniProt Q01718); conditions: 10µM
# T6 construct: expressed in transfected cells; host or cells: HEK293A
# T6 sequence (Q01718 whole entry): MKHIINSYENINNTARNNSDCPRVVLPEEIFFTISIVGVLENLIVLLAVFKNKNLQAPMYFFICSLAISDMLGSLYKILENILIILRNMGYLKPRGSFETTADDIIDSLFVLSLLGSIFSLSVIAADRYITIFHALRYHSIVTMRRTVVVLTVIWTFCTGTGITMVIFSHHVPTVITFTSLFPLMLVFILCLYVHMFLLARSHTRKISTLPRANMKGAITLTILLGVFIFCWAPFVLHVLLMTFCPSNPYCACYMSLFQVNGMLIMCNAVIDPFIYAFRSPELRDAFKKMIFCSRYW
# 348 GPCRs [10] = target: T7, 348 GPCRs (Homo sapiens, UniProt Q7Z601); conditions: 10µM, Favipiravir 100μM
# T7 construct: expressed in transfected cells; host or cells: HEK293A
# T7 sequence (Q7Z601 1-462): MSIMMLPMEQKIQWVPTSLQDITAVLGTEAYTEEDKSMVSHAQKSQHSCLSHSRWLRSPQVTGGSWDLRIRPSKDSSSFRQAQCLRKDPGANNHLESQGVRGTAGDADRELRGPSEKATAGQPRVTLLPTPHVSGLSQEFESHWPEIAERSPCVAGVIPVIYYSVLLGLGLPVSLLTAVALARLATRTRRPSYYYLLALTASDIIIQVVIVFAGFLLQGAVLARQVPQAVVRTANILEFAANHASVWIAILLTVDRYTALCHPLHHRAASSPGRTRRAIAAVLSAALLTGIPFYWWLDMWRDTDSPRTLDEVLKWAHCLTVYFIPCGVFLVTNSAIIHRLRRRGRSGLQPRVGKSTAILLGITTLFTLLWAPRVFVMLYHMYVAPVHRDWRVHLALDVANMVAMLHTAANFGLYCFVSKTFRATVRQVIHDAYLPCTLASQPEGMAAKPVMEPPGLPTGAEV
# 348 GPCRs [11] = target: 348 GPCRs (Homo sapiens, UniProt P35346); conditions: 10µM, Favipiravir 100μM
# Sequence of 348 GPCRs (Homo sapiens, UniProt P35346) (P35346 whole entry): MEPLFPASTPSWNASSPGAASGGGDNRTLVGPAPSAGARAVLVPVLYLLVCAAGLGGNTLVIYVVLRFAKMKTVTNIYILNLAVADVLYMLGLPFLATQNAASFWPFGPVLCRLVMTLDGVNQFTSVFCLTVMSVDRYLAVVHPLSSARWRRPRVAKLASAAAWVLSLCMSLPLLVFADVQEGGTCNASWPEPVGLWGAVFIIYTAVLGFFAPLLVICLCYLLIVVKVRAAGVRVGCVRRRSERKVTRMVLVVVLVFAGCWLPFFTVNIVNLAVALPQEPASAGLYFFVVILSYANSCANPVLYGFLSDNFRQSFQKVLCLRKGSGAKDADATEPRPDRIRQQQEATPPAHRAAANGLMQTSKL
# 348 GPCRs [12] = target: T8, 348 GPCRs (Homo sapiens, UniProt Q96LB2); conditions: 10µM, Favipiravir 100μM
# T8 construct: expressed in transfected cells; host or cells: HEK293A
# T8 sequence (Q96LB2 whole entry): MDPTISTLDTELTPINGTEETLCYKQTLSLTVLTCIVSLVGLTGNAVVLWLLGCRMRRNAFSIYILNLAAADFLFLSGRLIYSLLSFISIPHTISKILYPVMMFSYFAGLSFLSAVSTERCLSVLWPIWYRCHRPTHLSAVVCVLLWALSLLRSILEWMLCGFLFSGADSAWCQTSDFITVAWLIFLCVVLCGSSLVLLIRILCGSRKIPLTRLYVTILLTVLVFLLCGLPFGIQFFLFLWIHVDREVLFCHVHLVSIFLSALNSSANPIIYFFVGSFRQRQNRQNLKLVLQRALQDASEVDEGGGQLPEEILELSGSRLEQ
# 348 GPCRs [13] = target: T9, 348 GPCRs (Homo sapiens, UniProt P49683); conditions: 10µM, Favipiravir 100μM
# T9 construct: expressed in transfected cells; host or cells: HEK293A
# T9 sequence (P49683 1-370): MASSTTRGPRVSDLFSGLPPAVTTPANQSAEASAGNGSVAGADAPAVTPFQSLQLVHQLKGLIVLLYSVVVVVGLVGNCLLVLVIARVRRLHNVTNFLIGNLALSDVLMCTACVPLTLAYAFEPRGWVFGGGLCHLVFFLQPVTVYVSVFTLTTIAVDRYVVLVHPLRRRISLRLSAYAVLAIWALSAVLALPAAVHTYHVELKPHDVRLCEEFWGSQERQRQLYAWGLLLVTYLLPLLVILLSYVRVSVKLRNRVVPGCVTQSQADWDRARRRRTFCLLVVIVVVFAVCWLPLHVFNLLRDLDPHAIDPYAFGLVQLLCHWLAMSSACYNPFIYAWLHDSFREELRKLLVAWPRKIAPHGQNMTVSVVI
# [14] = read-out: % GPCR activation compared to TPA, PTH2R (parathyroid hormone 2 receptor)
# [15] = read-out: % GPCR activation compared to TPA, TAAR2 (trace amine associated receptor 2)
# [16] = read-out: % GPCR activation compared to TPA, D1 (dopamine receptor D1)
# [17] = read-out: % GPCR activation compared to TPA, MT1R (melatonin receptor type 1A)
# [18] = read-out: % GPCR activation compared to TPA, APLNR (apelin receptor)
# [19] = read-out: % GPCR activation compared to TPA, MRGPRX3 (MAS-related GPR, member X3)
# [20] = read-out: % GPCR activation compared to TPA, NTSR1(CO) (neurotensin receptor 1)
# [21] = read-out: % GPCR activation compared to TPA, GPCR MC2R (melanocortin 2 receptor)
# [22] = read-out: % GPCR activation compared to TPA, GPR142 (G protein-coupled receptor 142)
# [23] = read-out: % GPCR activation compared to TPA, SSTR5 (somatostatin receptor 5)
# [24] = read-out: % GPCR activation compared to TPA, MRGPRX1 (MAS-related GPR, member X1)
# [25] = read-out: % GPCR activation compared to TPA, PRLHR (prolactin releasing hormone receptor)
# T1 sequence (P49190 25-550): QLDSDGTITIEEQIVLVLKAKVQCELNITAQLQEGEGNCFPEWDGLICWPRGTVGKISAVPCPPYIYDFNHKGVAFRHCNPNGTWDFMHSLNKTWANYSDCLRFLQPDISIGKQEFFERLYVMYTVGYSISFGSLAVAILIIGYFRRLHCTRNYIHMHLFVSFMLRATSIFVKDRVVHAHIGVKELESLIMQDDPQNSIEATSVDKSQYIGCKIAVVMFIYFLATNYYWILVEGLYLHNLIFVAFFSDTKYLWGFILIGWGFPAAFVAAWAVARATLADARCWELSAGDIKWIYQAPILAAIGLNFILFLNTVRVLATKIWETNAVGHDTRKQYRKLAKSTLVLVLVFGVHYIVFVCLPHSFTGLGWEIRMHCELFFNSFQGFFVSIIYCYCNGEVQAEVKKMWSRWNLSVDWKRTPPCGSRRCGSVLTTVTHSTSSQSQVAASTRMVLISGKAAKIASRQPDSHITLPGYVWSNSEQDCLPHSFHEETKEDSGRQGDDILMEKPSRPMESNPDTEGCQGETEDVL
SMILES,activation at 100 µM (348 GPCRs [8]),activation at 100 µM (348 GPCRs [1]; [14]),activation at 100 µM (348 GPCRs [2]; [15]),activation at 10 µM (348 GPCRs [3]; [16]),activation at 10 µM (348 GPCRs [4]; [17]),activation at 10 µM (348 GPCRs [5]; [18]),activation at 100 µM (348 GPCRs [6]; [19]),activation at 100 µM (348 GPCRs [7]; [20]),activation at 10 µM (348 GPCRs [9]; [21]),activation at 100 µM (348 GPCRs [10]; [22]),activation at 10 µM (348 GPCRs [11]; [23]),activation at 100 µM (348 GPCRs [12]; [24]),activation at 100 µM (348 GPCRs [13]; [25]),other results
CC(C)C(=O)OC[C@H]1O[C@@H](n2ccc(NO)nc2=O)[C@H](O)[C@@H]1O [molnupiravir],-1.39%,,,,,,,,,,,,,"activation at 100 µM (348 GPCRs [1]; PTH2R (parathyroid hormone 2 receptor), read-out: % GPCR activation compared to TPA): -0.481%; activation at 100 µM (348 GPCRs [2]; TAAR2 (trace amine associated receptor 2), read-out: % GPCR activation compared to TPA): -0.153%; activation at 10 µM (348 GPCRs [3]; D1 (dopamine receptor D1), read-out: % GPCR activation compared to TPA): 1.11%; activation at 10 µM (348 GPCRs [4]; MT1R (melatonin receptor type 1A), read-out: % GPCR activation compared to TPA): -4.07%; activation at 10 µM (348 GPCRs [5]; APLNR (apelin receptor), read-out: % GPCR activation compared to TPA): -5.92%; activation at 100 µM (348 GPCRs [6]; MRGPRX3 (MAS-related GPR, member X3), read-out: % GPCR activation compared to TPA): -1.5%; activation at 100 µM (348 GPCRs [7]; NTSR1(CO) (neurotensin receptor 1), read-out: % GPCR activation compared to TPA): -6.1%; activation at 10 µM (348 GPCRs [9]; GPCR MC2R (melanocortin 2 receptor), read-out: % GPCR activation compared to TPA): -0.524%; activation at 100 µM (348 GPCRs [10]; GPR142 (G protein-coupled receptor 142), read-out: % GPCR activation compared to TPA): 2.63%; activation at 10 µM (348 GPCRs [11]; SSTR5 (somatostatin receptor 5), read-out: % GPCR activation compared to TPA): -2.28%; activation at 100 µM (348 GPCRs [12]; MRGPRX1 (MAS-related GPR, member X1), read-out: % GPCR activation compared to TPA): -2.42%; activation at 100 µM (348 GPCRs [13]; PRLHR (prolactin releasing hormone receptor), read-out: % GPCR activation compared to TPA): -3.13%"
CCC(CC)COC(=O)[C@H](C)N[P@](=O)(OC[C@H]1O[C@@](C#N)(c2ccc3c(N)ncnn23)[C@H](O)[C@@H]1O)Oc1ccccc1 [remdesivir],6.17%,0.518%,1.05%,4.77%,0.542%,3.68%,-0.608%,-1.56%,-1.06%,1.22%,-0.348%,0.23%,0.33%,
CC(C)OC(=O)[C@H](C)N[P@](=O)(OC[C@H]1O[C@@H](n2ccc(=O)[nH]c2=O)[C@](C)(F)[C@@H]1O)Oc1ccccc1 [sofosbuvir],-1.11%,-1.19%,-0.403%,-0.068%,-4.49%,-5.57%,0.522%,-8.04%,-3.14%,3.77%,-0.552%,-1.41%,-8.24%,
